Laboratory results as given in patent publication US9233948B2, “Pharmaceutical compositions comprising N-(4-(2-amino-3-chloropyridin-4-yloxy)-3-fluorophenyl)-4-ethoxy-1-(4-fluorophenyl)-2-oxo-1,2-dihydropyridine-3-carboxamide” (Bristol-Myers Squibb Company, priority 2010, dated 2016).
≈ marks a conversion by molar mass, not a printed value. Where two headings read alike, the source gives them in different places.

Key:
[1] = Aqueous solubility of crystalline forms of Compound (I); type: physicochemical
Text: However, in the presence of an aqueous medium, the neat crystalline Form N-1 can convert to the crystalline sesquihydrate Form H1.5-2. […] One method to increase the bioavailability of compounds in a suspension is to increase the surface area of the particles in contact with the aqueous medium, which can be achieved by decreasing the particle size. However, reductions in particle size below diameters of approximately one micron requires specialized milling and dispersion techniques to prepare, stabilize, and sterilize the sub-micron suspensions. Desired is an aqueous suspension of Compound (I) in Form N-1 that has sufficient resistance to conversion to the sesquihydrate Form H1.5-2 to allow oral administration.

[2] = Pharmacokinetics of capsules of Form N-1 with two particle sizes; set-up: species or system dogs; settings: dog, in vivo, 10 mg/kg, 10 mpk; for bioavailability: oral, compared to IV data, read-out: Absolute Bioavailability; for AUC / Cmax / Tmax: po
Protocol: The microsuspension of Example 7, tablets, and hard gelatin capsules containing the phosphate salt of Compound (I) were dosed orally at 10 mg/kg in dogs pretreated with pentagastrin. The resulting exposures were compared to an absolute bioavailability calculated by comparison to an IV dose in the same animals. Capsules were prepared comprising Compound (I), Form N-1 with two different particle sizes.

[3] = Chemical and physical stability testing of Form N-1; type: physicochemical; settings: several different temperature and humidity conditions
[4] = Chemical stability of tablets after accelerated storage; type: physicochemical; settings: control
Protocol: The chemical stability of the 25 mg tablet of Example 9 was evaluated after accelerated storage at various temperatures and humidity conditions for periods up to one month.

[5] = Particle Diameter D90 10 micron
[6] = Particle Diameter D90 70 micron

In the case of `CCOc1ccn(-c2ccc(F)cc2)c(=O)c1C(=O)Nc1ccc(Oc2ccnc(N)c2Cl)c(F)c1` [Form H1.5-2, N-(4-(2-Amino-3-chloropyridin-4-yloxy)-3-fluorophenyl)-4-ethoxy-1-(4-fluorophenyl)-2-oxo-1,2-dihydropyridine-3-carboxamide], the “aqueous solubility compared to Form N-1” value [1] is reported as “lower aqueous solubility compared to Form N-1”.

`CCOc1ccn(-c2ccc(F)cc2)c(=O)c1C(=O)Nc1ccc(Oc2ccnc(N)c2Cl)c(F)c1` [Form N-1, N-(4-(2-Amino-3-chloropyridin-4-yloxy)-3-fluorophenyl)-4-ethoxy-1-(4-fluorophenyl)-2-oxo-1,2-dihydropyridine-3-carboxamide] gave a solubility ([1]; aqueous medium, aqueous buffer, pH 7.4 and room temperature) of roughly 0.25 µg/mL (≈ 0.487 µM), a bioavailability [2, 5] of roughly 32% and a bioavailability [2, 6] of 12%. It also gave an AUC [2, 5] of 90.2 ± 5.5 µM·h, a Cmax [2, 5] of 15 ± 2.7 µM and a Tmax [2, 5] of 6 h. The AUC [2, 6] was 33.3 ± 8.4 µM·h, the Cmax [2, 6] was 6.9 ± 1.1 µM and the Tmax [2, 6] was 2 h. For the same compound, the “chemical and physical stability” value [3] was “suitable chemical and physical stability”.

With `CCOc1ccn(-c2ccc(F)cc2)c(=O)c1C(=O)Nc1ccc(Oc2ccnc(N)c2Cl)c(F)c1` [Compound (I), N-(4-(2-Amino-3-chloropyridin-4-yloxy)-3-fluorophenyl)-4-ethoxy-1-(4-fluorophenyl)-2-oxo-1,2-dihydropyridine-3-carboxamide] the “Total Impurity” value [4] was 0.13%.
